Test results taken from US11395857B2, “Radiolabeled melanocortin 1 receptor-specific alpha-melanocyte-stimulating hormone analogues for imaging or therapy” (PROVINCIAL HEALTH SERVICES AUTHORITY, priority 2018, dated 2022).
Where two headings read alike, the source gives them in different places.

What was measured:
[1] = tested on: B16F10 mouse melanoma; assay: Biodistribution of 177Lu-labeled αMSH analogues in mice bearing B16F10 mouse melanoma; type: in vivo, C57BL/6J mice; conditions: C57BL/6J mice, B16F10 melanoma
Description: (§1) The B16-F10 mouse melanoma cells were cultured and inoculated in mice as described in Example 1.
(§2) For biodistribution studies, approximately 1-2 MBq of ^177Lu-labeled αMSH analogues via tail vein under anesthesia. At 1, 4, 24, and 120 h p.i., the mice were euthanized by CO2 inhalation. Organs/tissues were harvested and the radioactivity was measured as described in Example 1.

[2] = as above; type: in vivo, C57BL/6J mice; conditions: mouse, iv, total radioactivity, C57BL/6J mice, B16F10 melanoma
Description: as §1, §2

- Biodistribution, B16F10 tumour ([1]; 1 h p.i.): 8.25 ± 1.94 % ID/g
- Biodistribution, B16F10 tumour ([1]; 4 h p.i.): 7.81 ± 2.16 % ID/g
- Biodistribution, B16F10 tumour ([1]; 24 h p.i.): 3.45 ± 0.30 % ID/g
- Biodistribution, B16F10 tumour ([1]; 120 h p.i.): 0.49 ± 0.36 % ID/g
- Biodistribution, Blood ([1]; 120 h p.i.): 0.00 ± 0.00 % ID/g
- Biodistribution, Brain ([1]; 120 h p.i.): 0.00 ± 0.00 % ID/g
- Biodistribution, Fat ([1]; 120 h p.i.): 0.00 ± 0.00 % ID/g
- Biodistribution, Muscle ([1]; 120 h p.i.): 0.00 ± 0.00 % ID/g
- tissue uptake at 1 h ([2]; male, seminal glands, 1 h p.i., read-out: Biodistribution, Seminal glands): 0.22 ± 0.35 %ID/g
- tissue uptake at 4 h ([2]; male, seminal glands, 4 h p.i., read-out: Biodistribution, Seminal glands): 0.02 %ID/g
- tissue uptake at 24 h ([2]; male, seminal glands, 24 h p.i., read-out: Biodistribution, Seminal glands): 0.01 %ID/g
- tissue uptake at 120 h ([2]; male, seminal glands, 120 h p.i., read-out: Biodistribution, Seminal glands): 0.01 ± 0.01 %ID/g
- tissue uptake at 1 h ([2]; male, testes, 1 h p.i., read-out: Biodistribution, Testes): 0.17 ± 0.06 %ID/g
- tissue uptake at 4 h ([2]; male, testes, 4 h p.i., read-out: Biodistribution, Testes): 0.04 %ID/g
- tissue uptake at 24 h ([2]; male, testes, 24 h p.i., read-out: Biodistribution, Testes): 0.03 %ID/g
- tissue uptake at 120 h ([2]; male, testes, 120 h p.i., read-out: Biodistribution, Testes): 0.02 %ID/g
- tissue uptake at 1 h ([2]; adrenal glands, 1 h p.i., read-out: Biodistribution, Adrenal glands): 0.54 ± 0.28 %ID/g
- tissue uptake at 4 h ([2]; adrenal glands, 4 h p.i., read-out: Biodistribution, Adrenal glands): 0.13 ± 0.06 %ID/g
- tissue uptake at 24 h ([2]; adrenal glands, 24 h p.i., read-out: Biodistribution, Adrenal glands): 0.23 ± 0.18 %ID/g
- tissue uptake at 120 h ([2]; adrenal glands, 120 h p.i., read-out: Biodistribution, Adrenal glands): 0.02 ± 0.02 %ID/g
- tissue uptake at 1 h ([2]; blood, 1 h p.i., read-out: Biodistribution, Blood): 0.49 ± 0.22 %ID/g
- tissue uptake at 4 h ([2]; blood, 4 h p.i., read-out: Biodistribution, Blood): 0.02 %ID/g
- tissue uptake at 24 h ([2]; blood, 24 h p.i., read-out: Biodistribution, Blood): 0.01 %ID/g
- tissue uptake at 1 h ([2]; bone, 1 h p.i., read-out: Biodistribution, Bone): 0.18 ± 0.04 %ID/g
- tissue uptake at 4 h ([2]; bone, 4 h p.i., read-out: Biodistribution, Bone): 0.07 ± 0.02 %ID/g
- tissue uptake at 24 h ([2]; bone, 24 h p.i., read-out: Biodistribution, Bone): 0.06 ± 0.01 %ID/g
- tissue uptake at 120 h ([2]; bone, 120 h p.i., read-out: Biodistribution, Bone): 0.04 ± 0.01 %ID/g
- tissue uptake at 1 h ([2]; brain, 1 h p.i., read-out: Biodistribution, Brain): 0.02 %ID/g
- tissue uptake at 4 h ([2]; brain, 4 h p.i., read-out: Biodistribution, Brain): 0.01 %ID/g
- tissue uptake at 24 h ([2]; brain, 24 h p.i., read-out: Biodistribution, Brain): 0.01 %ID/g
- tissue uptake at 1 h ([2]; fat, 1 h p.i., read-out: Biodistribution, Fat): 0.05 ± 0.02 %ID/g
- tissue uptake at 4 h ([2]; fat, 4 h p.i., read-out: Biodistribution, Fat): 0.01 ± 0.01 %ID/g
- tissue uptake at 24 h ([2]; fat, 24 h p.i., read-out: Biodistribution, Fat): 0.01 %ID/g
- tissue uptake at 1 h ([2]; heart, 1 h p.i., read-out: Biodistribution, Heart): 0.19 ± 0.07 %ID/g
- tissue uptake at 4 h ([2]; heart, 4 h p.i., read-out: Biodistribution, Heart): 0.03 %ID/g
- tissue uptake at 24 h ([2]; heart, 24 h p.i., read-out: Biodistribution, Heart): 0.02 %ID/g
- tissue uptake at 120 h ([2]; heart, 120 h p.i., read-out: Biodistribution, Heart): 0.01 %ID/g
- tissue uptake at 1 h ([2]; intestine, 1 h p.i., read-out: Biodistribution, Intestine): 0.45 ± 0.2 %ID/g
- tissue uptake at 4 h ([2]; intestine, 4 h p.i., read-out: Biodistribution, Intestine): 0.11 ± 0.06 %ID/g
- tissue uptake at 24 h ([2]; intestine, 24 h p.i., read-out: Biodistribution, Intestine): 0.13 ± 0.04 %ID/g
- tissue uptake at 120 h ([2]; intestine, 120 h p.i., read-out: Biodistribution, Intestine): 0.06 ± 0.07 %ID/g
- tissue uptake at 1 h ([2]; kidneys, 1 h p.i., read-out: Biodistribution, Kidneys): 4.79 ± 0.92 %ID/g
- tissue uptake at 4 h ([2]; kidneys, 4 h p.i., read-out: Biodistribution, Kidneys): 3.31 ± 0.66 %ID/g
- tissue uptake at 24 h ([2]; kidneys, 24 h p.i., read-out: Biodistribution, Kidneys): 1.24 ± 0.46 %ID/g
- tissue uptake at 120 h ([2]; kidneys, 120 h p.i., read-out: Biodistribution, Kidneys): 0.36 ± 0.05 %ID/g
- tissue uptake at 1 h ([2]; liver, 1 h p.i., read-out: Biodistribution, Liver): 0.88 ± 0.16 %ID/g
- tissue uptake at 4 h ([2]; liver, 4 h p.i., read-out: Biodistribution, Liver): 0.81 ± 0.08 %ID/g
- tissue uptake at 24 h ([2]; liver, 24 h p.i., read-out: Biodistribution, Liver): 0.58 ± 0.14 %ID/g
- tissue uptake at 120 h ([2]; liver, 120 h p.i., read-out: Biodistribution, Liver): 0.34 ± 0.03 %ID/g
- tissue uptake at 1 h ([2]; lungs, 1 h p.i., read-out: Biodistribution, Lungs): 0.6 ± 0.19 %ID/g
- tissue uptake at 4 h ([2]; lungs, 4 h p.i., read-out: Biodistribution, Lungs): 0.14 ± 0.04 %ID/g
- tissue uptake at 24 h ([2]; lungs, 24 h p.i., read-out: Biodistribution, Lungs): 0.06 ± 0.02 %ID/g
- tissue uptake at 120 h ([2]; lungs, 120 h p.i., read-out: Biodistribution, Lungs): 0.01 ± 0.01 %ID/g
- tissue uptake at 1 h ([2]; muscle, 1 h p.i., read-out: Biodistribution, Muscle): 0.12 ± 0.05 %ID/g
- tissue uptake at 4 h ([2]; muscle, 4 h p.i., read-out: Biodistribution, Muscle): 0.02 ± 0.01 %ID/g
- tissue uptake at 24 h ([2]; muscle, 24 h p.i., read-out: Biodistribution, Muscle): 0.01 ± 0.01 %ID/g
- tissue uptake at 1 h ([2]; pancreas, 1 h p.i., read-out: Biodistribution, Pancreas): 0.15 ± 0.05 %ID/g
- tissue uptake at 4 h ([2]; pancreas, 4 h p.i., read-out: Biodistribution, Pancreas): 0.03 %ID/g
- tissue uptake at 24 h ([2]; pancreas, 24 h p.i., read-out: Biodistribution, Pancreas): 0.03 ± 0.01 %ID/g
- tissue uptake at 120 h ([2]; pancreas, 120 h p.i., read-out: Biodistribution, Pancreas): 0.01 %ID/g
- tissue uptake at 1 h ([2]; spleen, 1 h p.i., read-out: Biodistribution, Spleen): 0.38 ± 0.11 %ID/g
- tissue uptake at 4 h ([2]; spleen, 4 h p.i., read-out: Biodistribution, Spleen): 0.24 ± 0.03 %ID/g
- tissue uptake at 24 h ([2]; spleen, 24 h p.i., read-out: Biodistribution, Spleen): 0.2 ± 0.04 %ID/g
- tissue uptake at 120 h ([2]; spleen, 120 h p.i., read-out: Biodistribution, Spleen): 0.11 ± 0.01 %ID/g
- tissue uptake at 1 h ([2]; stomach, 1 h p.i., read-out: Biodistribution, Stomach): 0.36 ± 0.22 %ID/g
- tissue uptake at 4 h ([2]; stomach, 4 h p.i., read-out: Biodistribution, Stomach): 0.11 ± 0.02 %ID/g
- tissue uptake at 24 h ([2]; stomach, 24 h p.i., read-out: Biodistribution, Stomach): 0.42 ± 0.18 %ID/g
- tissue uptake at 120 h ([2]; stomach, 120 h p.i., read-out: Biodistribution, Stomach): 0.1 ± 0.08 %ID/g
- tissue uptake at 1 h ([2]; thyroid, 1 h p.i., read-out: Biodistribution, Thyroid): 0.43 ± 0.11 %ID/g
- tissue uptake at 4 h ([2]; thyroid, 4 h p.i., read-out: Biodistribution, Thyroid): 0.27 ± 0.06 %ID/g
- tissue uptake at 24 h ([2]; thyroid, 24 h p.i., read-out: Biodistribution, Thyroid): 0.17 ± 0.01 %ID/g
- tissue uptake at 120 h ([2]; thyroid, 120 h p.i., read-out: Biodistribution, Thyroid): 0.05 ± 0.02 %ID/g
- tissue to tissue ratio at 1 h ([2]; tumour/blood, 1 h p.i., read-out: Tumour/blood): 19.2 ± 8.25
- tissue to tissue ratio at 4 h ([2]; tumour/blood, 4 h p.i., read-out: Tumour/blood): 414 ± 59
- tissue to tissue ratio at 24 h ([2]; tumour/blood, 24 h p.i., read-out: Tumour/blood): 652 ± 101
- tissue to tissue ratio at 120 h ([2]; tumour/blood, 120 h p.i., read-out: Tumour/blood): 466 ± 382
- tissue to tissue ratio at 1 h ([2]; tumour/kidney, 1 h p.i., read-out: Tumour/kidney): 1.75 ± 0.47
- tissue to tissue ratio at 4 h ([2]; tumour/kidney, 4 h p.i., read-out: Tumour/kidney): 2.46 ± 0.87
- tissue to tissue ratio at 24 h ([2]; tumour/kidney, 24 h p.i., read-out: Tumour/kidney): 3.08 ± 1.05
- tissue to tissue ratio at 120 h ([2]; tumour/kidney, 120 h p.i., read-out: Tumour/kidney): 1.44 ± 1.14
- tissue to tissue ratio at 1 h ([2]; tumour/muscle, 1 h p.i., read-out: Tumour/muscle): 75 ± 29.8
- tissue to tissue ratio at 4 h ([2]; tumour/muscle, 4 h p.i., read-out: Tumour/muscle): 452 ± 158
- tissue to tissue ratio at 24 h ([2]; tumour/muscle, 24 h p.i., read-out: Tumour/muscle): 320 ± 91.8
- tissue to tissue ratio at 120 h ([2]; tumour/muscle, 120 h p.i., read-out: Tumour/muscle): 117 ± 92.2
- excreta dose per gram or mL at 1 h ([2]; urine, 1 h p.i.): 222 ± 81.1 %ID/g
- excreta dose per gram or mL at 4 h ([2]; urine, 4 h p.i.): 19.3 ± 4.21 %ID/g
- excreta dose per gram or mL at 24 h ([2]; urine, 24 h p.i.): 0.94 ± 0.48 %ID/g
- excreta dose per gram or mL at 120 h ([2]; urine, 120 h p.i.): 0.15 ± 0.07 %ID/g
SMILES: CCCC[C@H](NC(=O)CN1CCC(NC(=O)CN2CCN(CC(=O)O)CCN(CC(=O)O)CCN(CC(=O)O)CC2)CC1)C(=O)N[C@H]1CC(=O)NCCCC[C@@H](C(N)=O)N(C)C(=O)[C@H](Cc2c[nH]c3ccccc23)NC(=O)[C@H](CCCNC(=N)N)N(C)C(=O)[C@@H](Cc2ccccc2)NC(=O)[C@H](Cc2c[nH]cn2)NC1=O [^177Lu-labeled CCZ01106, metal not drawn]
